In ChEMBL document CHEMBL5523769, “Discovery of Novel Nonpeptidic and Noncovalent Small Molecule 3CLpro Inhibitors as anti-SARS-CoV-2 Drug Candidate” (J Med Chem, 2024):
pIC50, pKd: −log10 of the molar value.

Assays:
[1] = Cytotoxicity against African green monkey Vero E6 cells incubated for 24 hrs by CCK8 assay; assay type: toxicity, cell-based, Vero C1008; details: chlorocebus sabaeus
[2] = molecular target: T1, Replicase polyprotein 1ab (Severe acute respiratory syndrome coronavirus 2, UniProt P0DTD1)
[3] = AUC (0 to infinity) in ICR mouse at 20 mg/kg, po; assay type: ADME, organism-based; details: in vivo
[4] = Tmax in ICR mouse at 20 mg/kg, po; assay type: ADME, organism-based; details: in vivo
[5] = molecular target: Replicase polyprotein 1ab (Severe acute respiratory syndrome coronavirus 2) (UniProt P0DTD1); details: dose 31.25-1000 nM, time 100.0 sec
[6] = molecular target: T1, Replicase polyprotein 1ab; remark: listed apart in the source
[7] = Cmax in ICR mouse at 20 mg/kg, po; assay type: ADME, organism-based; details: in vivo
[8] = Observed MRT (0 to infinity) in ICR mouse at 20 mg/kg, po; assay type: ADME, organism-based; details: in vivo
[9] = molecular target: Replicase polyprotein 1ab (Severe acute respiratory syndrome coronavirus 2) (UniProt P0DTD1); details: dose 31.25-1000 nM, time 100.0 sec; remark: listed apart in the source
[10] = AUClast in ICR mouse at 20 mg/kg, po; assay type: ADME, organism-based; details: in vivo
[11] = Half-life in ICR mouse at 20 mg/kg, po; assay type: ADME, organism-based; details: in vivo

Compound	pIC50 [2]	also measured
CNC(=O)c1cc(C2CC2)cc([N+](=O)[O-])c1N[C@@H]1CCCC[C@@H]1NC(=O)c1cc(=O)[nH]c2ccccc12	7.68	CC50 at 24 h [1]: > 200000 nM
CN1CCN(C(=O)C2CN(c3ccc(Cl)c(Cl)c3)CCN2C(=O)c2cc(=O)[nH]c3ccccc23)CC1 (configuration not stated)	5.88	–
O=C1CCN(C(=O)C2CN(c3ccc(Cl)c(Cl)c3)CCN2C(=O)c2cc(=O)[nH]c3ccccc23)CC1 (configuration not stated)	5.48	–
CN1CCN(C(=O)c2cc(C3CC3)cc([N+](=O)[O-])c2N[C@@H]2CCC[C@@H]2NC(=O)c2cc(=O)[nH]c3ccccc23)CC1	7.60	–
CN(CC1COCCO1)C(=O)C1CN(c2ccc(Cl)c(Cl)c2)CCN1C(=O)c1cc(=O)[nH]c2ccccc12 (configuration not stated)	5.58	–
O=C(NCCC1CCCC1)C1CN(c2ccc(Cl)c(Cl)c2)CCN1C(=O)c1cc(=O)[nH]c2ccccc12 (configuration not stated)	6.04	–
COc1ccc2[nH]c(=O)cc(C(=O)N[C@H]3CCCC[C@H]3Nc3c(C(=O)N4CCOCC4)cc(Br)cc3[N+](=O)[O-])c2c1	7.53	–
O=C(NCCCC(F)(F)F)C1CN(c2ccc(Cl)c(Cl)c2)CCN1C(=O)c1cc(=O)[nH]c2ccccc12 (configuration not stated)	6.70	CC50 at 24 h [1]: 69400 nM
CN1CCN(C(=O)c2cc(Br)cc([N+](=O)[O-])c2N[C@@H]2CCC[C@@H]2NC(=O)c2cc(=O)[nH]c3ccccc23)CC1	7.64	–
CN1CCN(C(=O)c2cc(Br)cc([N+](=O)[O-])c2N[C@@H]2CCC[C@@H]2NC(=O)c2cc(=O)[nH]c3c(F)cccc23)CC1	7.54	–
O=C(N[C@H]1CCCC[C@H]1Nc1c(C(=O)N2CCOCC2)cc(Br)cc1[N+](=O)[O-])c1cc(=O)[nH]c2cc(F)ccc12	7.41	–
O=C(NCCC1CC1)C1CN(c2ccc(Cl)c(Cl)c2)CCN1C(=O)c1cc(=O)[nH]c2ccccc12 (configuration not stated)	6.28	–
O=C(c1cc(=O)[nH]c2ccccc12)N1CCC(Nc2ccc(Cl)c(Cl)c2)C1 (configuration not stated)	5.08	–
CCCCNC(=O)C1CN(c2ccc(Cl)c(Cl)c2)CCN1C(=O)c1cc(=O)[nH]c2ccccc12 (configuration not stated)	6.24	–
O=C(NCCC(F)(F)F)[C@H]1CN(c2ccc(Cl)c(Cl)c2)CCN1C(=O)c1cc(=O)[nH]c2ccccc12	6.27	–
O=C(NCC1CC1)C1CN(c2ccc(Cl)c(Cl)c2)CCN1C(=O)c1cc(=O)[nH]c2ccccc12 (configuration not stated)	6.47	–
O=C(NCC1CCCC1)C1CN(c2ccc(Cl)c(Cl)c2)CCN1C(=O)c1cc(=O)[nH]c2ccccc12 (configuration not stated)	6.55	–
O=C(C1CN(c2ccc(Cl)c(Cl)c2)CCN1C(=O)c1cc(=O)[nH]c2ccccc12)N1CC2(COC2)C1 (configuration not stated)	5.68	–
O=C(NCC1CCCO1)C1CN(c2ccc(Cl)c(Cl)c2)CCN1C(=O)c1cc(=O)[nH]c2ccccc12 (configuration not stated)	6.46	–
O=C(NCCC(F)(F)F)[C@@H]1CN(c2ccc(Cl)c(Cl)c2)CCN1C(=O)c1cc(=O)[nH]c2ccccc12	6.82	–
COc1ccc2[nH]c(=O)cc(C(=O)N[C@H]3CCC[C@H]3Nc3c(C(=O)N4CCN(C)CC4)cc(C4CC4)cc3[N+](=O)[O-])c2c1	7.62	–
COc1ccc2[nH]c(=O)cc(C(=O)N[C@H]3CCCC[C@H]3Nc3c(C(=O)N4CCN(C)CC4)cc(Br)cc3[N+](=O)[O-])c2c1	7.74	–
O=C(c1cc(=O)[nH]c2ccccc12)N1CCN(c2ccc(Cl)c(Cl)c2)C[C@@H]1CC1CCCCC1	< 4.70	–
O=C(N[C@@H]1CCC[C@@H]1Nc1ccc(Cl)c(Cl)c1)c1cc(=O)[nH]c2ccccc12	< 5.00	–
O=C(NCC1CCC1)C1CN(c2ccc(Cl)c(Cl)c2)CCN1C(=O)c1cc(=O)[nH]c2ccccc12 (configuration not stated)	6.52	–
CNC(=O)c1cc(Br)cc([N+](=O)[O-])c1N[C@H]1CCC[C@H]1NC(=O)c1cc(=O)[nH]c2ccccc12	7.29	–
O=C(N[C@H]1CCCC[C@H]1Nc1c(C(=O)N2CCOCC2)cc(Br)cc1[N+](=O)[O-])c1cc(=O)[nH]c2c(F)cccc12	7.57	AUC(0-inf) [3]: 21.6 ng·h/mL; Tmax [4]: 15 min; K [5]: 5.4 10^5/M/s; pKd [6]: 7.72; Cmax [7]: 33.9 ng/mL; CC50 at 24 h [1]: > 200000 nM; MRT inf [8]: 39 min; K [9]: 0.01 s⁻¹; AUC(0-t) [10]: 21.2 ng·h/mL; half-life [11]: 48 min
O=C(N[C@H]1CCC[C@H]1Nc1c(C(=O)N2CCOCC2)cc(C2CC2)cc1[N+](=O)[O-])c1cc(=O)[nH]c2c(F)cccc12	7.67	–

Compound	pIC50 [2]	also measured
O=C(N[C@H]1CCC[C@H]1Nc1c(C(=O)N2CCOCC2)cc(Br)cc1[N+](=O)[O-])c1cc(=O)[nH]c2ccccc12	7.68	–
O=C(N[C@H]1CCC[C@H]1Nc1c(C(=O)N2CCOCC2)cc(Br)cc1[N+](=O)[O-])c1cc(=O)[nH]c2c(F)cccc12	7.44	–
O=C(N[C@H]1CCCC[C@H]1Nc1c(C(=O)N2CCOCC2)cc(Br)cc1[N+](=O)[O-])c1cc(=O)[nH]c2ccccc12	7.49	CC50 at 24 h [1]: > 200000 nM
CNC(=O)c1cc(Br)cc([N+](=O)[O-])c1N[C@@H]1CCCC[C@@H]1NC(=O)c1cc(=O)[nH]c2ccc(F)cc12	7.24	CC50 at 24 h [1]: > 200000 nM
O=C(NCCCN1CCOCC1)C1CN(c2ccc(Cl)c(Cl)c2)CCN1C(=O)c1cc(=O)[nH]c2ccccc12 (configuration not stated)	5.87	–
O=C(c1cc(=O)[nH]c2ccccc12)N1CCN(c2ccc(Cl)c(Cl)c2)CC1Cc1ccccc1 (configuration not stated)	< 4.70	–
CC1(C)C2CN(C(=O)C3CN(c4ccc(Cl)c(Cl)c4)CCN3C(=O)c3cc(=O)[nH]c4ccccc34)CC21 (configuration not stated)	5.35	–
COc1ccc2[nH]c(=O)cc(C(=O)N[C@H]3CCCC[C@H]3Nc3c(C(=O)N4CCOCC4)cc(C4CC4)cc3[N+](=O)[O-])c2c1	7.97	CC50 at 24 h [1]: > 200000 nM
O=C(NCC1CCCCC1)C1CN(c2ccc(Cl)c(Cl)c2)CCN1C(=O)c1cc(=O)[nH]c2ccccc12 (configuration not stated)	6.36	–
CNC(=O)c1cc(Br)cc([N+](=O)[O-])c1N[C@@H]1CCCC[C@@H]1NC(=O)c1cc(=O)[nH]c2ccccc12	7.39	AUC(0-inf) [3]: 29.9 ng·h/mL; Tmax [4]: 15 min; K [5]: 2.1 10^5/M/s; pKd [6]: 8.05; Cmax [7]: 11.3 ng/mL; CC50 at 24 h [1]: > 200000 nM; MRT inf [8]: 305 min; K [9]: 0.019 s⁻¹; AUC(0-t) [10]: 23.6 ng·h/mL; half-life [11]: 231 min
O=C(NCC1CCO1)C1CN(c2ccc(Cl)c(Cl)c2)CCN1C(=O)c1cc(=O)[nH]c2ccccc12 (configuration not stated)	6.51	–
O=C(C1CN(c2ccc(Cl)c(Cl)c2)CCN1C(=O)c1cc(=O)[nH]c2ccccc12)N1CCC2(CC1)COC2 (configuration not stated)	5.65	–
O=C1CC2(CCN(C(=O)C3CN(c4ccc(Cl)c(Cl)c4)CCN3C(=O)c3cc(=O)[nH]c4ccccc34)CC2)C1 (configuration not stated)	5.89	–
CN1CCN(C(=O)c2cc(C3CC3)cc([N+](=O)[O-])c2N[C@@H]2CCC[C@@H]2NC(=O)c2cc(=O)[nH]c3c(F)cccc23)CC1	7.55	–
O=C(C1CN(c2ccc(Cl)c(Cl)c2)CCN1C(=O)c1cc(=O)[nH]c2ccccc12)N1CCOCC1 (configuration not stated)	5.02	–
O=C(NCCN1CCOCC1)C1CN(c2ccc(Cl)c(Cl)c2)CCN1C(=O)c1cc(=O)[nH]c2ccccc12 (configuration not stated)	6.08	–
O=C(N[C@H]1CCC[C@H]1Nc1c(C(=O)N2CCOCC2)cc(C2CC2)cc1[N+](=O)[O-])c1cc(=O)[nH]c2ccccc12	7.63	–
O=C1CC2CN(C(=O)C3CN(c4ccc(Cl)c(Cl)c4)CCN3C(=O)c3cc(=O)[nH]c4ccccc34)CC2C1 (configuration not stated)	5.73	–
O=C(N[C@H]1CCCC[C@H]1Nc1c(C(=O)N2CCOCC2)cc(C2CC2)cc1[N+](=O)[O-])c1cc(=O)[nH]c2ccccc12	8.02	CC50 at 24 h [1]: > 200000 nM
O=C(NCCC1CCOCC1)C1CN(c2ccc(Cl)c(Cl)c2)CCN1C(=O)c1cc(=O)[nH]c2ccccc12 (configuration not stated)	5.94	–
CNC(=O)c1cc(Br)cc([N+](=O)[O-])c1N[C@@H]1CCCC[C@@H]1NC(=O)c1cc(=O)[nH]c2c(F)cccc12	7.24	AUC(0-inf) [3]: 58.2 ng·h/mL; Tmax [4]: 3 min; K [5]: 7.5 10^5/M/s; pKd [6]: 7.63; Cmax [7]: 63.6 ng/mL; CC50 at 24 h [1]: > 200000 nM; MRT inf [8]: 93.6 min; K [9]: 0.018 s⁻¹; AUC(0-t) [10]: 56.1 ng·h/mL; half-life [11]: 139 min
COc1ccc2[nH]c(=O)cc(C(=O)N[C@H]3CCC[C@H]3Nc3c(C(=O)N4CCOCC4)cc(C4CC4)cc3[N+](=O)[O-])c2c1	7.69	–
CNC(=O)c1cccc([N+](=O)[O-])c1N[C@@H]1CCCC[C@@H]1NC(=O)c1cc(=O)[nH]c2ccccc12	5.91	–
O=C(NCCC(F)(F)F)C1CN(c2ccc(Cl)c(Cl)c2)CCN1C(=O)c1cc(=O)[nH]c2ccccc12 (configuration not stated)	6.70	CC50 at 24 h [1]: 50300 nM
CNC(=O)c1cc(Br)cc([N+](=O)[O-])c1N[C@@H]1CCCC[C@@H]1NC(=O)c1cc(=O)[nH]c2cc(F)ccc12	6.98	–
CNC(=O)c1cc(Br)cc([N+](=O)[O-])c1NC1CCN(C(=O)c2cc(=O)[nH]c3ccccc23)C1 (configuration not stated)	6.71	–
O=C(N[C@H]1CCCC[C@H]1Nc1c(C(=O)N2CCOCC2)cc(C2CC2)cc1[N+](=O)[O-])c1cc(=O)[nH]c2c(F)cccc12	7.94	–
